Laboratory results taken from PubChem BioAssay AID2060897 (Molecular Pharmacology Branch, DTP, NCI, 2025).
pIC50: −log10 of the molar value.

Test system: 966289-007-R4-J1-PDC complex spheroid viability
Experiment: Anticancer human tumor 966289-007-R4-J1-PDC patient-derived pancreatic adenocarcinoma cell line growth inhibition [RAS]
Conditions: for pIC50: curve of first compound; for viability, T/C: stronger effect = lower value
In short: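 Tumour cells grown as complex spheroids with HUVEC endothelial cells and mesenchymal stem cells, treated with RAS pathway inhibitor combinations. Each agent spans half-log steps from near clinical Cmax, or 10 microM where Cmax is unknown.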

[1] = second compound 0.00316 µM, first compound 0.0316 µM
[2] = second compound 0.00316 µM, first compound 0.1 µM
[3] = second compound 0.00316 µM, first compound 0.316 µM
[4] = second compound 0.00316 µM, first compound 1 µM
[5] = second compound 0.00316 µM, first compound 3.16 µM
[6] = second compound 0.00316 µM, first compound 10 µM
[7] = second compound 0.01 µM, first compound 0.0316 µM
[8] = second compound 0.01 µM, first compound 0.1 µM
[9] = second compound 0.01 µM, first compound 0.316 µM
[10] = second compound 0.01 µM, first compound 1 µM
[11] = second compound 0.01 µM, first compound 3.16 µM
[12] = second compound 0.01 µM, first compound 10 µM
[13] = second compound 0.0316 µM, first compound 0.0316 µM
[14] = second compound 0.0316 µM, first compound 0.1 µM
[15] = second compound 0.0316 µM, first compound 0.316 µM
[16] = second compound 0.0316 µM, first compound 1 µM
[17] = second compound 0.0316 µM, first compound 3.16 µM
[18] = second compound 0.0316 µM, first compound 10 µM
[19] = second compound 0.1 µM, first compound 0.0316 µM
[20] = second compound 0.1 µM, first compound 0.1 µM
[21] = second compound 0.1 µM, first compound 0.316 µM
[22] = second compound 0.1 µM, first compound 1 µM
[23] = second compound 0.1 µM, first compound 3.16 µM
[24] = second compound 0.1 µM, first compound 10 µM
[25] = second compound 0.316 µM, first compound 0.0316 µM
[26] = second compound 0.316 µM, first compound 0.1 µM
[27] = second compound 0.316 µM, first compound 0.316 µM
[28] = second compound 0.316 µM, first compound 1 µM
[29] = second compound 0.316 µM, first compound 3.16 µM
[30] = second compound 0.316 µM, first compound 10 µM
[31] = second compound 1 µM, first compound 0.0316 µM
[32] = second compound 1 µM, first compound 0.1 µM
[33] = second compound 1 µM, first compound 0.316 µM
[34] = second compound 1 µM, first compound 1 µM
[35] = second compound 1 µM, first compound 3.16 µM
[36] = second compound 1 µM, first compound 10 µM
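Also: spheroids exposed to agents for one week before readout.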
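For viability, T/C in this document: percent viability relative to DMSO vehicle control wells as 100%.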

CC(Nc1ccc2c(c1)OCCn1cc(N3C(=O)OCC3C(F)F)nc1-2)C(N)=O (stereo unspecified) + C=CC(=O)N1CCN(c2nc(OCC3CCCN3C)nc3c(F)c(-c4nc(N)cc(C)c4C(F)(F)F)c(Cl)cc23)C(C)C1
pIC50 (second compound 0.00316 µM): < 5.00
pIC50 (second compound 0.01 µM): < 5.00
pIC50 (second compound 0.0316 µM): < 5.00
pIC50 (second compound 0.1 µM): < 5.00
pIC50 (second compound 0.316 µM): < 5.00
pIC50 (second compound 1 µM): < 5.00
viability, T/C [1]: 96.2%
viability, T/C [2]: 103%
viability, T/C [3]: 96.3%
viability, T/C [4]: 96.4%
viability, T/C [5]: 101%
viability, T/C [6]: 86.1%
viability, T/C [7]: 89.8%
viability, T/C [8]: 112%
viability, T/C [9]: 115%
viability, T/C [10]: 102%
viability, T/C [11]: 97.4%
viability, T/C [12]: 86.9%
viability, T/C [13]: 99.8%
viability, T/C [14]: 110%
viability, T/C [15]: 114%
viability, T/C [16]: 111%
viability, T/C [17]: 93.2%
viability, T/C [18]: 84.1%
viability, T/C [19]: 95.8%
viability, T/C [20]: 111%
viability, T/C [21]: 115%
viability, T/C [22]: 115%
viability, T/C [23]: 88.3%
viability, T/C [24]: 93.3%
viability, T/C [25]: 96.6%
viability, T/C [26]: 101%
viability, T/C [27]: 117%
viability, T/C [28]: 117%
viability, T/C [29]: 103%
viability, T/C [30]: 98.7%
viability, T/C [31]: 99.8%
viability, T/C [32]: 110%
viability, T/C [33]: 112%
viability, T/C [34]: 87.1%
viability, T/C [35]: 96.5%
viability, T/C [36]: 83.2%

CC(=O)OC12COC1CC(O)C1(C)C(=O)C(O)C3=C(C)C(OC(=O)C(O)C(NC(=O)OC(C)(C)C)c4ccccc4)CC(O)(C(OC(=O)c4ccccc4)C21)C3(C)C (stereo unspecified) + C=CC(=O)N1CCN(c2nc(OCC3CCCN3C)nc3c(F)c(-c4nc(N)cc(C)c4C(F)(F)F)c(Cl)cc23)C(C)C1
pIC50 (second compound 0.00316 µM): > 7.50
pIC50 (second compound 0.01 µM): > 7.50
pIC50 (second compound 0.0316 µM): > 7.50
pIC50 (second compound 0.1 µM): > 7.50
pIC50 (second compound 0.316 µM): > 7.50
pIC50 (second compound 1 µM): > 7.50
viability, T/C [1]: 7.49%
viability, T/C [2]: 11.8%
viability, T/C [3]: 14.4%
viability, T/C [4]: 20.6%
viability, T/C [5]: 30.4%
viability, T/C [6]: 48.1%
viability, T/C [7]: 7.11%
viability, T/C [8]: 11.6%
viability, T/C [9]: 14.8%
viability, T/C [10]: 19.2%
viability, T/C [11]: 31.9%
viability, T/C [12]: 60.7%
viability, T/C [13]: 7.67%
viability, T/C [14]: 13.9%
viability, T/C [15]: 10.9%
viability, T/C [16]: 18.2%
viability, T/C [17]: 33.2%
viability, T/C [18]: 56.3%
viability, T/C [19]: 6.48%
viability, T/C [20]: 12.7%
viability, T/C [21]: 15.2%
viability, T/C [22]: 21.9%
viability, T/C [23]: 30.4%
viability, T/C [24]: 57.9%
viability, T/C [25]: 7.29%
viability, T/C [26]: 12%
viability, T/C [27]: 12.1%
viability, T/C [28]: 15.3%
viability, T/C [29]: 30.3%
viability, T/C [30]: 56.1%
viability, T/C [31]: 8.02%
viability, T/C [32]: 12.3%
viability, T/C [33]: 12.5%
viability, T/C [34]: 19%
viability, T/C [35]: 35.8%
viability, T/C [36]: 49.2%

CC(C)n1nc(-c2ccc3oc(N)nc3c2)c2c(N)ncnc21 + CCn1c(-c2cc(N3CCN(C)CC3)cnc2C(C)OC)c2c3cc(ccc31)-c1csc(n1)CC(NC(=O)C1CC1C)C(=O)N1CCCC(N1)C(=O)OCC(C)(C)C2
pIC50 (second compound 0.000949 µM): 7.55
pIC50 (second compound 0.003 µM): 7.49
pIC50 (second compound 0.00949 µM): 7.51
pIC50 (second compound 0.03 µM): 7.59
pIC50 (second compound 0.0949 µM): 7.58
pIC50 (second compound 0.3 µM): 7.60
viability, T/C (second compound 0.000949 µM, first compound 0.000316 µM): 89.3%
viability, T/C (second compound 0.000949 µM, first compound 0.001 µM): 116%
viability, T/C (second compound 0.000949 µM, first compound 0.00316 µM): 133%
viability, T/C (second compound 0.000949 µM, first compound 0.01 µM): 78.5%
viability, T/C (second compound 0.000949 µM, first compound 0.0316 µM): 50.5%
viability, T/C (second compound 0.000949 µM, first compound 0.1 µM): 16.2%
viability, T/C (second compound 0.003 µM, first compound 0.000316 µM): 83.3%
viability, T/C (second compound 0.003 µM, first compound 0.001 µM): 128%
viability, T/C (second compound 0.003 µM, first compound 0.00316 µM): 93.6%
viability, T/C (second compound 0.003 µM, first compound 0.01 µM): 108%
viability, T/C (second compound 0.003 µM, first compound 0.0316 µM): 50.6%
viability, T/C (second compound 0.003 µM, first compound 0.1 µM): 18.5%
viability, T/C (second compound 0.00949 µM, first compound 0.000316 µM): 105%
viability, T/C (second compound 0.00949 µM, first compound 0.001 µM): 108%
viability, T/C (second compound 0.00949 µM, first compound 0.00316 µM): 107%
viability, T/C (second compound 0.00949 µM, first compound 0.01 µM): 108%
viability, T/C (second compound 0.00949 µM, first compound 0.0316 µM): 48.5%
viability, T/C (second compound 0.00949 µM, first compound 0.1 µM): 15.2%
viability, T/C (second compound 0.03 µM, first compound 0.000316 µM): 107%
viability, T/C (second compound 0.03 µM, first compound 0.001 µM): 90.8%
viability, T/C (second compound 0.03 µM, first compound 0.00316 µM): 108%
viability, T/C (second compound 0.03 µM, first compound 0.01 µM): 106%
viability, T/C (second compound 0.03 µM, first compound 0.0316 µM): 38.1%
viability, T/C (second compound 0.03 µM, first compound 0.1 µM): 17.4%
viability, T/C (second compound 0.0949 µM, first compound 0.000316 µM): 98%
viability, T/C (second compound 0.0949 µM, first compound 0.001 µM): 117%
viability, T/C (second compound 0.0949 µM, first compound 0.00316 µM): 106%
viability, T/C (second compound 0.0949 µM, first compound 0.01 µM): 112%
viability, T/C (second compound 0.0949 µM, first compound 0.0316 µM): 38.4%
viability, T/C (second compound 0.0949 µM, first compound 0.1 µM): 14.7%
viability, T/C (second compound 0.3 µM, first compound 0.000316 µM): 91.8%
viability, T/C (second compound 0.3 µM, first compound 0.001 µM): 107%
viability, T/C (second compound 0.3 µM, first compound 0.00316 µM): 112%
viability, T/C (second compound 0.3 µM, first compound 0.01 µM): 87.1%
viability, T/C (second compound 0.3 µM, first compound 0.0316 µM): 41.6%
viability, T/C (second compound 0.3 µM, first compound 0.1 µM): 16.6%
